Reference: the NIST ThermoML archive (doi:10.1021/acs.jced.7b00106)
Values joined by “and” are separate entries in the source; they are usually repeats but may differ in a detail not shown here. Equal values may be shown once. ± gives the expanded uncertainty stated by the source.

Settings: Fluid (supercritical or subcritical phases), Hot wire method

FC(F)(F)/C=C/Cl [(E)-1-chloro-3,3,3-trifluoroprop-1-ene]
Settings | thermal conductivity
451.94 K, 2166 kPa | 0.02385 ± 0.0012 W/m/K
451.94 K, 5208 kPa | 0.04623 ± 0.019 W/m/K
451.95 K, 2165 kPa | 0.02394 ± 0.00099 W/m/K
451.98 K, 987 kPa | 0.02333 ± 0.0012 W/m/K
451.98 K, 990 kPa | 0.0233 ± 0.00095 W/m/K
451.98 K, 3273 kPa | 0.02726 ± 0.0096 W/m/K
451.99 K, 3272 kPa | 0.02725 ± 0.0057 W/m/K
452.01 K, 1670 kPa | 0.02346 ± 0.0027 W/m/K
452.01 K, 1671 kPa | 0.0235 ± 0.0022 W/m/K
452.01 K, 2616 kPa | 0.02474 ± 0.0029 W/m/K
452.01 K, 2617 kPa | 0.02483 ± 0.0027 W/m/K
452.03 K, 5206 kPa | 0.0467 ± 0.018 W/m/K
452.03 K, 5207 kPa | 0.04676 ± 0.02 W/m/K
452.06 K, 2990 kPa | 0.026 ± 0.003 W/m/K
452.06 K, 2991 kPa | 0.02595 ± 0.0038 W/m/K
452.09 K, 2165 kPa | 0.02407 ± 0.0015 W/m/K and 0.024 ± 0.0025 W/m/K
452.12 K, 5207 kPa | 0.0469 ± 0.02 W/m/K
452.13 K, 5206 kPa | 0.04663 ± 0.017 W/m/K
452.14 K, 7293 kPa | 0.04964 ± 0.0052 W/m/K
452.14 K, 7296 kPa | 0.04969 ± 0.0042 W/m/K
452.15 K, 987 kPa | 0.02338 ± 0.0017 W/m/K
452.16 K, 988 kPa | 0.02337 ± 0.0017 W/m/K
452.16 K, 2617 kPa | 0.02488 ± 0.0027 W/m/K
452.17 K, 1671 kPa | 0.02356 ± 0.0018 W/m/K
452.17 K, 2617 kPa | 0.02487 ± 0.0037 W/m/K
452.19 K, 5579 kPa | 0.04728 ± 0.012 W/m/K
452.2 K, 2991 kPa | 0.02606 ± 0.0012 W/m/K
452.2 K, 5578 kPa | 0.0472 ± 0.014 W/m/K
452.21 K, 2990 kPa | 0.026 ± 0.0017 W/m/K
452.23 K, 5207 kPa | 0.04713 W/m/K
452.24 K, 5208 kPa | 0.0472 W/m/K
452.25 K, 2165 kPa | 0.024 ± 0.0046 W/m/K
452.29 K, 5577 kPa | 0.04741 ± 0.014 W/m/K
452.3 K, 5578 kPa | 0.04745 ± 0.014 W/m/K
452.31 K, 7293 kPa | 0.04973 ± 0.0045 W/m/K
452.32 K, 7296 kPa | 0.0498 ± 0.0045 W/m/K
452.33 K, 988 kPa | 0.0233 ± 0.0015 W/m/K
452.33 K, 2615 kPa | 0.02494 ± 0.0093 W/m/K
452.33 K, 2618 kPa | 0.02493 ± 0.0065 W/m/K
452.33 K, 6080 kPa | 0.04801 ± 0.0095 W/m/K
452.33 K, 6081 kPa | 0.04806 ± 0.0088 W/m/K
452.34 K, 988 kPa | 0.02333 ± 0.0016 W/m/K
452.34 K, 1671 kPa | 0.02345 ± 0.0024 W/m/K
452.35 K, 1672 kPa | 0.02348 ± 0.002 W/m/K
452.36 K, 22580 kPa | 0.06316 ± 0.0034 W/m/K
452.41 K, 5578 kPa | 0.04763 ± 0.014 W/m/K
452.42 K, 2166 kPa | 0.02413 ± 0.0054 W/m/K
452.42 K, 2167 kPa | 0.02408 ± 0.0046 W/m/K
452.42 K, 5577 kPa | 0.04756 ± 0.012 W/m/K
452.43 K, 12588 kPa | 0.05554 ± 0.0036 W/m/K
452.43 K, 12589 kPa | 0.05558 ± 0.0032 W/m/K
452.46 K, 18530 kPa | 0.06032 ± 0.0025 W/m/K
452.46 K, 18535 kPa | 0.06035 ± 0.0028 W/m/K
452.48 K, 7729 kPa | 0.0503 ± 0.004 W/m/K
452.48 K, 7733 kPa | 0.05033 ± 0.0038 W/m/K
452.49 K, 10507 kPa | 0.05349 ± 0.0043 W/m/K
452.5 K, 7296 kPa | 0.04992 ± 0.0053 W/m/K
452.5 K, 7299 kPa | 0.04984 ± 0.0053 W/m/K
452.51 K, 6079 kPa | 0.04861 ± 0.0091 W/m/K
452.51 K, 6081 kPa | 0.04828 ± 0.0096 W/m/K
452.51 K, 15249 kPa | 0.05785 ± 0.003 W/m/K
452.52 K, 10513 kPa | 0.05353 ± 0.0034 W/m/K
452.52 K, 15256 kPa | 0.05787 ± 0.003 W/m/K
452.52 K, 22575 kPa | 0.06312 ± 0.0034 W/m/K
452.52 K, 22580 kPa | 0.06313 ± 0.0028 W/m/K
452.53 K, 989 kPa | 0.02342 ± 0.0014 W/m/K
452.53 K, 5576 kPa | 0.04776 ± 0.0085 W/m/K
452.53 K, 5577 kPa | 0.0478 ± 0.012 W/m/K
452.53 K, 6779 kPa | 0.0491 ± 0.005 W/m/K
452.53 K, 6780 kPa | 0.0491 ± 0.005 W/m/K
452.54 K, 985 kPa | 0.02339 ± 0.0013 W/m/K
452.54 K, 1671 kPa | 0.02355 ± 0.0034 W/m/K
452.54 K, 1672 kPa | 0.02352 ± 0.003 W/m/K
452.58 K, 8954 kPa | 0.0518 ± 0.004 W/m/K
452.58 K, 8958 kPa | 0.05186 ± 0.0041 W/m/K
452.61 K, 12577 kPa | 0.05553 ± 0.003 W/m/K
452.61 K, 12585 kPa | 0.05555 ± 0.0025 W/m/K
452.61 K, 18524 kPa | 0.06031 ± 0.0025 W/m/K
452.63 K, 18535 kPa | 0.06055 ± 0.0033 W/m/K
452.65 K, 5576 kPa | 0.04794 W/m/K
452.65 K, 5578 kPa | 0.04801 W/m/K
452.67 K, 7732 kPa | 0.0504 ± 0.0045 W/m/K
452.67 K, 7733 kPa | 0.05035 ± 0.0041 W/m/K
452.68 K, 10507 kPa | 0.05353 ± 0.0031 W/m/K
452.68 K, 10512 kPa | 0.05353 ± 0.0055 W/m/K
452.69 K, 6081 kPa | 0.04841 ± 0.01 W/m/K
452.69 K, 7300 kPa | 0.05001 ± 0.0047 W/m/K
452.69 K, 7301 kPa | 0.04996 ± 0.0046 W/m/K
452.69 K, 15244 kPa | 0.05785 ± 0.0027 W/m/K
452.69 K, 22569 kPa | 0.06311 ± 0.0028 W/m/K
452.69 K, 22574 kPa | 0.06307 ± 0.0028 W/m/K
452.7 K, 6080 kPa | 0.04844 ± 0.0068 W/m/K
452.71 K, 6780 kPa | 0.04921 ± 0.006 W/m/K
452.72 K, 6782 kPa | 0.04926 ± 0.0063 W/m/K
452.75 K, 990 kPa | 0.02344 ± 0.0013 W/m/K
452.76 K, 988 kPa | 0.02344 ± 0.0013 W/m/K
452.77 K, 8956 kPa | 0.05187 ± 0.0028 W/m/K and 0.05189 ± 0.0028 W/m/K
452.79 K, 18524 kPa | 0.0603 ± 0.0027 W/m/K
452.79 K, 18533 kPa | 0.06034 ± 0.0024 W/m/K
452.8 K, 12582 kPa | 0.05559 ± 0.0024 W/m/K
452.86 K, 7730 kPa | 0.05046 ± 0.0052 W/m/K
452.86 K, 7733 kPa | 0.05047 ± 0.0044 W/m/K
452.87 K, 10511 kPa | 0.05358 ± 0.0028 W/m/K
452.87 K, 22562 kPa | 0.06294 ± 0.0029 W/m/K
452.88 K, 10507 kPa | 0.05361 ± 0.0026 W/m/K
452.88 K, 15241 kPa | 0.05786 ± 0.0032 W/m/K
452.88 K, 15242 kPa | 0.05782 ± 0.0031 W/m/K
452.88 K, 22559 kPa | 0.06307 ± 0.0032 W/m/K
452.89 K, 6080 kPa | 0.04865 ± 0.0051 W/m/K
452.89 K, 6081 kPa | 0.04866 ± 0.0052 W/m/K
452.9 K, 7299 kPa | 0.0501 ± 0.0045 W/m/K
452.9 K, 7305 kPa | 0.05013 ± 0.0047 W/m/K
452.91 K, 6780 kPa | 0.04939 ± 0.0072 W/m/K
452.91 K, 6781 kPa | 0.04936 ± 0.0071 W/m/K
452.96 K, 8959 kPa | 0.05193 ± 0.0028 W/m/K
452.97 K, 8955 kPa | 0.0519 ± 0.003 W/m/K
452.98 K, 18519 kPa | 0.06033 ± 0.0026 W/m/K
452.99 K, 12573 kPa | 0.05553 ± 0.0027 W/m/K
452.99 K, 12587 kPa | 0.05557 ± 0.0025 W/m/K
453.06 K, 7731 kPa | 0.05059 ± 0.0037 W/m/K
453.06 K, 22554 kPa | 0.06303 ± 0.0032 W/m/K
453.06 K, 22568 kPa | 0.06306 ± 0.0028 W/m/K
453.07 K, 7733 kPa | 0.05056 ± 0.003 W/m/K
453.07 K, 10506 kPa | 0.05359 ± 0.003 W/m/K
453.07 K, 15242 kPa | 0.05784 ± 0.0023 W/m/K
453.08 K, 10511 kPa | 0.05377 ± 0.0026 W/m/K
453.08 K, 15250 kPa | 0.05787 ± 0.0023 W/m/K
453.1 K, 6079 kPa | 0.04859 ± 0.002 W/m/K
453.12 K, 6779 kPa | 0.0495 ± 0.0074 W/m/K
453.12 K, 6780 kPa | 0.04953 ± 0.007 W/m/K
453.17 K, 18517 kPa | 0.06031 ± 0.0025 W/m/K
453.17 K, 18518 kPa | 0.06033 ± 0.0025 W/m/K
453.18 K, 8956 kPa | 0.05196 ± 0.0046 W/m/K
453.18 K, 8959 kPa | 0.05204 ± 0.0041 W/m/K
453.2 K, 12578 kPa | 0.05564 ± 0.0023 W/m/K
453.2 K, 12584 kPa | 0.05564 ± 0.0023 W/m/K
453.27 K, 7731 kPa | 0.05062 ± 0.0021 W/m/K
453.27 K, 10508 kPa | 0.05365 ± 0.0022 W/m/K
453.28 K, 7728 kPa | 0.05065 ± 0.004 W/m/K
453.28 K, 10506 kPa | 0.05366 ± 0.0035 W/m/K
453.28 K, 15236 kPa | 0.05778 ± 0.0034 W/m/K
453.28 K, 15246 kPa | 0.05788 ± 0.0023 W/m/K
453.33 K, 6776 kPa | 0.0497 ± 0.0069 W/m/K
453.33 K, 6780 kPa | 0.04971 ± 0.0066 W/m/K
453.39 K, 8959 kPa | 0.05209 ± 0.0032 W/m/K
